The values that follow are results of earlier work, collected in PMC7449315 (Journal for Immunotherapy of Cancer, 2020).

The conditions of this series: early phase I studies, single agent; ref 28 30 31; cited from earlier work.

Structures are written as SMILES.

`NS(=O)(=O)NCCNc1nonc1C(=NO)Nc1ccc(F)c(Br)c1` [epacadostat]: the best overall response result was “stable disease”.
`Cn1cc(C[C@@H](N)C(=O)O)c2ccccc21` [indoximod]: the best overall response result is “stable disease”.
Turning to `O[C@H](C[C@H]1c2c(F)cccc2-c2cncn21)[C@H]1CC[C@H](O)CC1` [navoximod], the best overall response result was “stable disease”.
